Assay results taken from patent US20020137929A1, “1 - (3-heterocyclylphenyl) isothiourea, -isourea, -guanidine and -amidine herbicidal agents” (Intellectual Property Department, BASF Aktiengesellschaft, priority 1998, published 2002).

What was measured:
[1] = system: TRZAWR (Wheat, Winter, cv Riband); test: Preemergence herbicidal evaluation; format: in vivo, Triticum aestivum; settings: preemergence, rated 4-5 weeks after treatment, 0-9 scale
Outline: (§1)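 In this greenhouse assay, monocot and dicot seeds are planted in soil and treated prior to emergence with an aqueous acetone spray (about 0.0156-0.500 kg/ha). Plants are assessed visually against control on a 0-9 scale after 4-5 weeks.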

CYPIR (Rice Flatsedge) [2] = test: Preemergence weed control under flooded paddy conditions; format: in vivo, Cyperus iria; settings: rated 3-4 weeks after treatment
Outline: (§2)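 Silt loam, seeds in top 0.5 cm; flood held 1.5-3 cm; test cpd as acetone/water 50/50 into flood water, ~0.0313-0.500 kg/ha a.i.; greenhouse 3-4 wk; visual 0-9 score vs control.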

[3] = system: SAGPY (Arrowhead (Pygmaea)); test: Postemergence weed control under flooded paddy conditions; format: in vivo, Sagittaria pygmaea; settings: postemergence weeds, rated 3 to 4 weeks after treatment
Outline: (§3)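 With weeds 3 to 5 cm tall and rice at the 1.5 to 2.5 leaf stage, containers were flooded and water held 1.5 to 3 cm above soil. Compounds in 50/50 v/v aqueous/acetone went into the flood water at about 0.0313 to 0.500 kg/ha a.i. Effects were visually rated 0–9 against controls after three to four weeks in the greenhouse.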

ECHCG (Barnyardgrass) = test: Preemergence herbicidal evaluation; format: in vivo, Echinochloa crus-galli; settings: preemergence, rated 4-5 weeks after treatment, 0-9 scale
Outline: as §1

ORYSAT (Rice, Tebonnet) = test: Postemergence herbicidal evaluation; format: in vivo, Oryza sativa, (L.) Tebonnet; settings: postemergence
Outline: (§4)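 Each compound, dispersed in an acetone/water mix (50/50) carrying 0.5% TWEEN 20, is nozzle-sprayed at 40 psi on approximately two-week-old seedlings at about 0.0156–0.500 kg/ha. Plants are assessed 4–5 weeks afterward on a 0–9 scale relative to control; duplicate tests are averaged.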

SETVI (Foxtail, Green) [4] = test: Postemergence herbicidal evaluation; format: in vivo, Setaria viridis; settings: postemergence
Outline: as §4

[5] = system: ECHORC (Watergrass (Calif.)); test: Preemergence weed control under flooded paddy conditions; format: in vivo, Echinochloa oryzoides; settings: rated 3-4 weeks after treatment
Outline: as §2

CYPSE (Flatsedge) [6] = test: as above; format: in vivo, Cyperus serotinus; settings: rated 3-4 weeks after treatment
Outline: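 First, seeds or propagules go into the top 0.5 cm of silt loam; next, water is held 1.5 to 3 cm over the soil; then compound (50/50 acetone/water) is pipetted into it at about 0.0313 to 0.500 kg/ha; finally plants are rated visually 0-9 after three to four weeks.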

CYPSE (Flatsedge) [7] = test: Postemergence weed control under flooded paddy conditions; format: in vivo, Cyperus serotinus; settings: postemergence weeds, rated 3 to 4 weeks after treatment
Outline: as §3

ZEAMX (Corn, Field) [8] = test: Preemergence herbicidal evaluation; format: in vivo, Zea mays; settings: preemergence, rated 4-5 weeks after treatment, 0-9 scale
Outline: as §1

[9] = system: ECHORC (Watergrass (Calif.)); test: Postemergence weed control under flooded paddy conditions; format: in vivo, Echinochloa oryzoides; settings: postemergence weeds, rated 3 to 4 weeks after treatment
Outline: as §3

ZEAMX (Corn, Field) [10] = test: Postemergence herbicidal evaluation; format: in vivo, Zea mays; settings: postemergence
Outline: as §4

SETVI (Foxtail, Green) [11] = test: Preemergence herbicidal evaluation; format: in vivo, Setaria viridis; settings: preemergence, rated 4-5 weeks after treatment, 0-9 scale
Outline: as §1

CYPIR (Rice Flatsedge) [12] = test: Postemergence weed control under flooded paddy conditions; format: in vivo, Cyperus iria; settings: postemergence weeds, rated 3 to 4 weeks after treatment
Outline: as §3

CCOC(=O)CN1C(=O)C(CC(=O)NS(=O)(=O)c2ccccc2)SC1=Nc1cc(-n2c(=O)cc(C(F)(F)F)n(C)c2=O)c(F)cc1Cl (centres unmarked) [Compound 100, Ethyl 2-{{2-chloro-5-[3,6-dihydro-3-methyl-2,6-dioxo-4-(trifluoromethyl)-1(2H)-pyrimidinyl]-4-fluorophenyl}imino}-4-oxo-5-{[(phenylsulfonyl)-carbamoyl]methyl]-3-thiazolidineacetate]
TRZAWR rating ([1]; 0.0313 kg/ha): 0.0
TRZAWR rating ([1]; 0.0625 kg/ha): 0.0
TRZAWR rating ([1]; 0.1250 kg/ha): 1.0
TRZAWR rating ([1]; 0.2500 kg/ha): 0.0
TRZAWR rating ([1]; 0.5000 kg/ha): 1.0
CYPIR herbicidal effect rating (CYPIR (Rice Flatsedge) [2]; 0.0313 kg/ha): 0.0
CYPIR herbicidal effect rating (CYPIR (Rice Flatsedge) [2]; 0.0625 kg/ha): 0.0
CYPIR herbicidal effect rating (CYPIR (Rice Flatsedge) [2]; 0.1250 kg/ha): 0.0
CYPIR herbicidal effect rating (CYPIR (Rice Flatsedge) [2]; 0.2500 kg/ha): 4.0
CYPIR herbicidal effect rating (CYPIR (Rice Flatsedge) [2]; 0.5000 kg/ha): 9.0
Herbicidal rating SAGPY ([3]; Rate 0.0313 kg/ha): 0.0
Herbicidal rating SAGPY ([3]; Rate 0.0625 kg/ha): 0.0
Herbicidal rating SAGPY ([3]; Rate 0.1250 kg/ha): 0.0
Herbicidal rating SAGPY ([3]; Rate 0.2500 kg/ha): 4.0
Herbicidal rating SAGPY ([3]; Rate 0.5000 kg/ha): 6.0
ECHCG rating (ECHCG (Barnyardgrass); 0.0313 kg/ha): 0.0
ECHCG rating (ECHCG (Barnyardgrass); 0.0625 kg/ha): 0.0
ECHCG rating (ECHCG (Barnyardgrass); 0.1250 kg/ha): 0.0
ECHCG rating (ECHCG (Barnyardgrass); 0.2500 kg/ha): 1.0
ECHCG rating (ECHCG (Barnyardgrass); 0.5000 kg/ha): 1.0
herbicidal rating ORYSAT (ORYSAT (Rice, Tebonnet); rate 0.0156 kg/ha): 3.0
herbicidal rating ORYSAT (ORYSAT (Rice, Tebonnet); rate 0.0313 kg/ha): 3.5
herbicidal rating ORYSAT (ORYSAT (Rice, Tebonnet); rate 0.0625 kg/ha): 3.5
herbicidal rating ORYSAT (ORYSAT (Rice, Tebonnet); rate 0.1250 kg/ha): 3.5
herbicidal rating SETVI (SETVI (Foxtail, Green) [4]; rate 0.0156 kg/ha): 2.0
herbicidal rating SETVI (SETVI (Foxtail, Green) [4]; rate 0.0313 kg/ha): 9.0
herbicidal rating SETVI (SETVI (Foxtail, Green) [4]; rate 0.0625 kg/ha): 6.0
herbicidal rating SETVI (SETVI (Foxtail, Green) [4]; rate 0.1250 kg/ha): 7.0
ECHORC herbicidal effect rating ([5]; 0.0313 kg/ha): 0.0
ECHORC herbicidal effect rating ([5]; 0.0625 kg/ha): 0.0
ECHORC herbicidal effect rating ([5]; 0.1250 kg/ha): 0.0
ECHORC herbicidal effect rating ([5]; 0.2500 kg/ha): 3.0
ECHORC herbicidal effect rating ([5]; 0.5000 kg/ha): 4.0
CYPSE herbicidal effect rating (CYPSE (Flatsedge) [6]; 0.0313 kg/ha): 0.0
CYPSE herbicidal effect rating (CYPSE (Flatsedge) [6]; 0.0625 kg/ha): 0.0
CYPSE herbicidal effect rating (CYPSE (Flatsedge) [6]; 0.1250 kg/ha): 0.0
CYPSE herbicidal effect rating (CYPSE (Flatsedge) [6]; 0.2500 kg/ha): 0.0
Herbicidal rating CYPSE (CYPSE (Flatsedge) [7]; Rate 0.0313 kg/ha): 0.0
Herbicidal rating CYPSE (CYPSE (Flatsedge) [7]; Rate 0.0625 kg/ha): 0.0
Herbicidal rating CYPSE (CYPSE (Flatsedge) [7]; Rate 0.1250 kg/ha): 0.0
Herbicidal rating CYPSE (CYPSE (Flatsedge) [7]; Rate 0.2500 kg/ha): 0.0
ZEAMX rating (ZEAMX (Corn, Field) [8]; 0.0313 kg/ha): 0.0
ZEAMX rating (ZEAMX (Corn, Field) [8]; 0.0625 kg/ha): 0.0
ZEAMX rating (ZEAMX (Corn, Field) [8]; 0.1250 kg/ha): 0.0
ZEAMX rating (ZEAMX (Corn, Field) [8]; 0.2500 kg/ha): 0.0
ZEAMX rating (ZEAMX (Corn, Field) [8]; 0.5000 kg/ha): 1.0
Herbicidal rating ECHORC ([9]; Rate 0.0313 kg/ha): 0.0
Herbicidal rating ECHORC ([9]; Rate 0.0625 kg/ha): 0.0
Herbicidal rating ECHORC ([9]; Rate 0.1250 kg/ha): 0.0
Herbicidal rating ECHORC ([9]; Rate 0.2500 kg/ha): 3.0
Herbicidal rating ECHORC ([9]; Rate 0.5000 kg/ha): 4.0
herbicidal rating ZEAMX (ZEAMX (Corn, Field) [10]; rate 0.0156 kg/ha): 4.5
herbicidal rating ZEAMX (ZEAMX (Corn, Field) [10]; rate 0.0313 kg/ha): 5.0
herbicidal rating ZEAMX (ZEAMX (Corn, Field) [10]; rate 0.0625 kg/ha): 5.0
herbicidal rating ZEAMX (ZEAMX (Corn, Field) [10]; rate 0.1250 kg/ha): 5.0
SETVI rating (SETVI (Foxtail, Green) [11]; 0.0313 kg/ha): 0.0
SETVI rating (SETVI (Foxtail, Green) [11]; 0.0625 kg/ha): 1.0
SETVI rating (SETVI (Foxtail, Green) [11]; 0.1250 kg/ha): 0.0
SETVI rating (SETVI (Foxtail, Green) [11]; 0.2500 kg/ha): 1.0
SETVI rating (SETVI (Foxtail, Green) [11]; 0.5000 kg/ha): 1.0
Herbicidal rating CYPIR (CYPIR (Rice Flatsedge) [12]; Rate 0.0313 kg/ha): 0.0
Herbicidal rating CYPIR (CYPIR (Rice Flatsedge) [12]; Rate 0.0625 kg/ha): 0.0
Herbicidal rating CYPIR (CYPIR (Rice Flatsedge) [12]; Rate 0.1250 kg/ha): 0.0
Herbicidal rating CYPIR (CYPIR (Rice Flatsedge) [12]; Rate 0.2500 kg/ha): 4.0
Herbicidal rating CYPIR (CYPIR (Rice Flatsedge) [12]; Rate 0.5000 kg/ha): 9.0
